Data as given in article PMC9492542, “Brain-restricted mTOR inhibition with binary pharmacology” (Nature, 2022).
Several values for one entry are separate records, joined by “and”; a condition that tells them apart may be missing. Equal values may be shown once. Read-outs that look alike come from different tables or passages of the source.

Legend:
mTOR = target: T1, mTOR (Homo sapiens, UniProt P42345); assay: In vitro mTOR kinase inhibition assay (SelectScreen Z'-LYTE), with or without 10 µM FKBP12; assay type: biochemical; settings: for residual kinase activity (mTOR): listed as RL-1
T1 construct: We performed in vitro kinase assays with purified mTOR protein; purchased SelectScreen Services (Thermo Fisher Scientific)
T1 sequence (P42345 1360-2549 limits assumed): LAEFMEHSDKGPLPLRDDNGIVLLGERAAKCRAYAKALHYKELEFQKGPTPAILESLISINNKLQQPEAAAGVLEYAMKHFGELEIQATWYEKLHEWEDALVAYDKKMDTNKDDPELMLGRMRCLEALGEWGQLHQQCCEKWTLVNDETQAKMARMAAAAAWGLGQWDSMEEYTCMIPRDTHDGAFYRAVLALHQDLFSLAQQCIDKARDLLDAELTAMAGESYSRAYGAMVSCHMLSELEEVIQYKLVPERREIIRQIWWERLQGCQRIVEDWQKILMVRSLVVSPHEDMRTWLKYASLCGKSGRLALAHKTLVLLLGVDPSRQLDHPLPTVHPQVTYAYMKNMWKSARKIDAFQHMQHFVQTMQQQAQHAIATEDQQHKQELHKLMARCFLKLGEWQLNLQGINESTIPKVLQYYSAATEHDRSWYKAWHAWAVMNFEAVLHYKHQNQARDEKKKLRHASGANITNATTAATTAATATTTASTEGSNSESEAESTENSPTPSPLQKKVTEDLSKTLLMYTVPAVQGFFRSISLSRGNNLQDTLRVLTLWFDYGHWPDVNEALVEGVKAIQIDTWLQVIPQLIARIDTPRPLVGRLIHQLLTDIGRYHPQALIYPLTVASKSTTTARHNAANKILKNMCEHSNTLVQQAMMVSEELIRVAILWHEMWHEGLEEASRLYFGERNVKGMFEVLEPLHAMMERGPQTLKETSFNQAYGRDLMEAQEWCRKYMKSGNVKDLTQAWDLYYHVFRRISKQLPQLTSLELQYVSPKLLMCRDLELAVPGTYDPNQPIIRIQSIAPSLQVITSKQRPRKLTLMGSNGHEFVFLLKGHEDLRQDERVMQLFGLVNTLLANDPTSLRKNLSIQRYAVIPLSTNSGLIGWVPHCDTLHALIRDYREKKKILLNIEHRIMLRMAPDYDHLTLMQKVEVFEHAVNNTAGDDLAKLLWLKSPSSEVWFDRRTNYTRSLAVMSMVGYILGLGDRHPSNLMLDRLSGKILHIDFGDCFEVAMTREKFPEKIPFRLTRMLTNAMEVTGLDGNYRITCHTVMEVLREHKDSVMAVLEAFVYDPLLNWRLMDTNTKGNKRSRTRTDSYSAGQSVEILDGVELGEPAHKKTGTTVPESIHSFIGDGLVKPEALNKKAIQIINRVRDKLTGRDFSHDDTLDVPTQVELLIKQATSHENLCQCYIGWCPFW
Protocol: In vitro kinase inhibition assays were performed by SelectScreen Services (Thermo Fisher Scientific) using either Z’-LYTE (mTOR, Src, Csk, EGFR, HER2 and HGK), Adapta (LRRK2) or LanthaScreen (DDR2) assay format (standardized protocols can be accessed on the SelectScreen website: https://www.thermofisher.com/us/en/home/products-and-services/services/custom-services/screening-and-profiling-services/selectscreen-profiling-service/selectscreen-kinase-profiling-service.html. When indicated, recombinant FKBP12 protein was added to the assay mixture to a final concentration of 10 µM.

human PBMCs = assay: Proliferation of anti-CD3/anti-CD28 stimulated PBMCs (120 h); assay type: cell-based; set-up: PBMC cell proliferation: unit not given here
K562 CRISPRi cells = assay: Cell viability assay (CellTiter-Glo, 72 h) in K562 CRISPRi cells with sgRNA knockdown of FKBP12
Protocol: Knockdown cells were generated by transducing K562 CRISPRi (sgRNA^–) cells with the sgRNA expression vectors at a multiplicity of infection of less than 1 (20–40% transduction rate) with 8 μg ml^–1 polybrene.
Cells were seeded into 96-well white flat bottom plates (1,000 cells per well) (Corning) and incubated overnight. […] Cell viability was assessed using a commercial CellTiter-Glo (CTG) luminescence-based assay (Promega). In brief, the 96-well plates were equilibrated to room temperature before the addition of diluted CTG reagent (100 μl) (1:4 CTG reagent:PBS). Plates were placed on an orbital shaker for 30 min before recording luminescence using a Spark 20M (TECAN) plate reader.

## CO[C@H]1C[C@@H]2CC[C@@H](C)[C@@](O)(O2)C(=O)C(=O)N2CCCC[C@H]2C(=O)O[C@H]([C@H](C)C[C@@H]2CC[C@@H](OCCOCc3cn(CCOCCOCCOCCOCCOCCOCCOCCOCCC(=O)NCCCCn4nc(-c5ccc6oc(N)nc6c5)c5c(N)ncnc54)nn3)[C@H](OC)C2)CC(=O)[C@H](C)/C=C(\C)[C@@H](O)[C@@H](OC)C(=O)[C@H](C)C[C@H](C)/C=C/C=C/C=C/1C [RapaLink-1]
mTOR; 0.00495 nM drug, +FKBP
  residual kinase activity (mTOR): 99
mTOR; 0.00495 nM drug, +FKBP, read-out: residual kinase activity (mTOR)
  remaining activity at 4.95 pM: 95%
mTOR; 0.00495 nM drug, no FKBP
  residual kinase activity (mTOR): 100
mTOR; 0.00495 nM drug, no FKBP, read-out: residual kinase activity (mTOR)
  remaining activity at 4.95 pM: 96%
mTOR; 0.0152 nM drug, +FKBP
  residual kinase activity (mTOR): 103
mTOR; 0.0152 nM drug, +FKBP, read-out: residual kinase activity (mTOR)
  remaining activity at 15.2 pM: 98%
mTOR; 0.0152 nM drug, no FKBP
  residual kinase activity (mTOR): 101
mTOR; 0.0152 nM drug, no FKBP, read-out: residual kinase activity (mTOR)
  remaining activity at 15.2 pM: 100%
mTOR; 0.0457 nM drug, +FKBP
  residual kinase activity (mTOR): 103
mTOR; 0.0457 nM drug, +FKBP, read-out: residual kinase activity (mTOR)
  remaining activity at 45.7 pM: 102%
mTOR; 0.0457 nM drug, no FKBP
  residual kinase activity (mTOR): 99
mTOR; 0.0457 nM drug, no FKBP, read-out: residual kinase activity (mTOR)
  remaining activity at 45.7 pM: 101%
mTOR; 0.137 nM drug, +FKBP
  residual kinase activity (mTOR): 99
mTOR; 0.137 nM drug, +FKBP, read-out: residual kinase activity (mTOR)
  remaining activity at 0.000137 µM: 101%
mTOR; 0.137 nM drug, no FKBP
  residual kinase activity (mTOR): 96
mTOR; 0.137 nM drug, no FKBP, read-out: residual kinase activity (mTOR)
  remaining activity at 0.000137 µM: 97%
mTOR; 0.412 nM drug, +FKBP, read-out: residual kinase activity (mTOR)
  remaining activity at 0.000412 µM: 97%
mTOR; 0.412 nM drug, no FKBP
  residual kinase activity (mTOR): 92
mTOR; 0.412 nM drug, no FKBP, read-out: residual kinase activity (mTOR)
  remaining activity at 0.000412 µM: 95%
mTOR; 1.23 nM drug, +FKBP
  residual kinase activity (mTOR): 86
mTOR; 1.23 nM drug, +FKBP, read-out: residual kinase activity (mTOR)
  remaining activity at 0.00123 µM: 89%
mTOR; 1.23 nM drug, no FKBP
  residual kinase activity (mTOR): 83
mTOR; 1.23 nM drug, no FKBP, read-out: residual kinase activity (mTOR)
  remaining activity at 0.00123 µM: 87%
mTOR; 11.1 nM drug, +FKBP
  residual kinase activity (mTOR): 17
mTOR; 11.1 nM drug, +FKBP, read-out: residual kinase activity (mTOR)
  remaining activity at 0.0111 µM: 14%
mTOR; 11.1 nM drug, no FKBP, read-out: residual kinase activity (mTOR)
  remaining activity at 0.0111 µM: 15%
mTOR; 33.3 nM drug, +FKBP
  residual kinase activity (mTOR): 4
mTOR; 33.3 nM drug, +FKBP, read-out: residual kinase activity (mTOR)
  remaining activity at 0.0333 µM: 2%
mTOR; 33.3 nM drug, no FKBP
  residual kinase activity (mTOR): 2
mTOR; 33.3 nM drug, no FKBP, read-out: residual kinase activity (mTOR)
  remaining activity at 0.0333 µM: 3%
mTOR; 100 nM drug, +FKBP
  residual kinase activity (mTOR): 2
mTOR; 100 nM drug, +FKBP, read-out: residual kinase activity (mTOR)
  remaining activity at 0.1 µM: 3%
mTOR; […] drug, +FKBP
  residual kinase activity (mTOR): 57
mTOR; […] drug, +FKBP, read-out: residual kinase activity (mTOR)
  remaining activity at […]: 55%
mTOR; […] drug, no FKBP
  residual kinase activity (mTOR): 54
mTOR; […] drug, no FKBP, read-out: residual kinase activity (mTOR)
  remaining activity at […]: 56%
mTOR; purified mTOR, whether FKBP12 was present
  IC50 for mTOR kinase activity: identical half-maximal inhibitory concentration (IC50) values as MLN0128
Human PBMCs; 0.005081 nM RapaLink-1, +10 μM RapaBlock
  PBMC cell proliferation: 104.4 and 111.7 and 94.4
Human PBMCs; 0.005081 nM RapaLink-1, No RapaBlock
  PBMC cell proliferation: 115.8 and 102.5 and 98.3
Human PBMCs; 0.015242 nM RapaLink-1, +10 μM RapaBlock
  PBMC cell proliferation: 110 and 113.9 and 99.3
Human PBMCs; 0.015242 nM RapaLink-1, No RapaBlock
  PBMC cell proliferation: 121.8 and 109.1 and 110.9
Human PBMCs; 0.045725 nM RapaLink-1, +10 μM RapaBlock
  PBMC cell proliferation: 112.2 and 110.5 and 104.3
Human PBMCs; 0.045725 nM RapaLink-1, No RapaBlock
  PBMC cell proliferation: 121.5 and 108 and 104.7
Human PBMCs; 0.137174 nM RapaLink-1, +10 μM RapaBlock
  PBMC cell proliferation: 110.3 and 116.4 and 104.2
Human PBMCs; 0.137174 nM RapaLink-1, No RapaBlock
  PBMC cell proliferation: 113.1 and 112.8 and 102.9
Human PBMCs; 0.411523 nM RapaLink-1, +10 μM RapaBlock
  PBMC cell proliferation: 114.7 and 112.8 and 107.7
Human PBMCs; 0.411523 nM RapaLink-1, No RapaBlock
  PBMC cell proliferation: 98.2 and 98.7 and 94.9
Human PBMCs; 1.23457 nM RapaLink-1, +10 μM RapaBlock
  PBMC cell proliferation: 109.6 and 111.8 and 107
Human PBMCs; 1.23457 nM RapaLink-1, No RapaBlock
  PBMC cell proliferation: 44.3 and 45.5 and 45.3
Human PBMCs; 3.7037 nM RapaLink-1, +10 μM RapaBlock
  PBMC cell proliferation: 105.8 and 104.9 and 94.5
Human PBMCs; 3.7037 nM RapaLink-1, No RapaBlock
  PBMC cell proliferation: 29.2 and 28.4 and 25.5
Human PBMCs; 11.1111 nM RapaLink-1, +10 μM RapaBlock
  PBMC cell proliferation: 84.3 and 94.6 and 81
Human PBMCs; 11.1111 nM RapaLink-1, No RapaBlock
  PBMC cell proliferation: 13.5 and 22.4 and 19.1
Human PBMCs; 33.3333 nM RapaLink-1, +10 μM RapaBlock
  PBMC cell proliferation: 64.4 and 70.2 and 62.9
Human PBMCs; 33.3333 nM RapaLink-1, No RapaBlock
  PBMC cell proliferation: 20.6 and 20 and 17.2
Human PBMCs; 100 nM RapaLink-1, +10 μM RapaBlock
  PBMC cell proliferation: 39.8 and 43.7 and 38.7
Human PBMCs; 100 nM RapaLink-1, No RapaBlock
  PBMC cell proliferation: 17.8 and 16.4 and 15.6
Human PBMCs; 5 days
  inhibition of PBMC proliferation: potently inhibited proliferation of PBMCs at nanomolar concentrations
K562 CRISPRi cells; FKBP12 sgRNA-1, 0.0152416 nM
  cell growth (K562-dCas9-KRAB): 105.506 and 102.628 and 96.1562
K562 CRISPRi cells; FKBP12 sgRNA-1, 0.0457247 nM
  cell growth (K562-dCas9-KRAB): 105.668 and 102.078 and 85.8686
K562 CRISPRi cells; FKBP12 sgRNA-1, 1.23457 nM
  cell growth (K562-dCas9-KRAB): 94.9833 and 94.8438 and 86.0533
K562 CRISPRi cells; FKBP12 sgRNA-1, 3.7037 nM
  cell growth (K562-dCas9-KRAB): 89.3098 and 83.2596 and 72.1854
K562 CRISPRi cells; FKBP12 sgRNA-1, 11.1111 nM
  cell growth (K562-dCas9-KRAB): 53.7829 and 50.941 and 46.1745
K562 CRISPRi cells; FKBP12 sgRNA-1, 33.3333 nM
  cell growth (K562-dCas9-KRAB): 28.0164 and 26.1284 and 21.6828
K562 CRISPRi cells; FKBP12 sgRNA-2, 0.0152416 nM
  cell growth (K562-dCas9-KRAB): 97.2191 and 100.632 and 101.126
K562 CRISPRi cells; FKBP12 sgRNA-2, 0.0457247 nM
  cell growth (K562-dCas9-KRAB): 97.7063 and 99.4263 and 97.7491
K562 CRISPRi cells; FKBP12 sgRNA-2, 0.137174 nM
  cell growth (K562-dCas9-KRAB): 95.7095 and 97.9482 and 99.6852
K562 CRISPRi cells; FKBP12 sgRNA-2, 1.23457 nM
  cell growth (K562-dCas9-KRAB): 93.7321 and 94.186 and 93.5157
K562 CRISPRi cells; FKBP12 sgRNA-2, 3.7037 nM
  cell growth (K562-dCas9-KRAB): 38.5541 and 41.9621 and 38.7138
K562 CRISPRi cells; FKBP12 sgRNA-2, 11.1111 nM
  cell growth (K562-dCas9-KRAB): 19.9055 and 20.364 and 21.1046
K562 CRISPRi cells; FKBP12 sgRNA-2, 33.3333 nM
  cell growth (K562-dCas9-KRAB): 15.1403 and 14.2518 and 15.8
K562 CRISPRi cells; GAL4-4 sgRNA, 0.0152416 nM
  cell growth (K562-dCas9-KRAB): 101.863 and 99.8606 and 100.119
K562 CRISPRi cells; GAL4-4 sgRNA, 0.0457247 nM
  cell growth (K562-dCas9-KRAB): 103.056 and 100.129 and 98.9614
K562 CRISPRi cells; GAL4-4 sgRNA, 0.137174 nM
  cell growth (K562-dCas9-KRAB): 97.8709
K562 CRISPRi cells; GAL4-4 sgRNA, 1.23457 nM
  cell growth (K562-dCas9-KRAB): 71.632 and 70.4313 and 67.4428
K562 CRISPRi cells; GAL4-4 sgRNA, 3.7037 nM
  cell growth (K562-dCas9-KRAB): 17.746 and 15.8338 and 15.2774
K562 CRISPRi cells; GAL4-4 sgRNA, 11.1111 nM
  cell growth (K562-dCas9-KRAB): 13.9448 and 13.723 and 15.0323
K562 CRISPRi cells; GAL4-4 sgRNA, 33.3333 nM
  cell growth (K562-dCas9-KRAB): 13.6321 and 13.22 and 14.5715
K562 CRISPRi cells; K562 dCas9-KRAB, two sgRNAs
  cellular activity after CRISPRi knockdown of FKBP12: drastically impeded its cellular activity
K562 CRISPRi cells; No sgRNA + 10 μM FK506, 0.0152416 nM
  cell growth (K562-dCas9-KRAB): 90.7304 and 95.49 and 92.3837
K562 CRISPRi cells; No sgRNA + 10 μM FK506, 0.0457247 nM
  cell growth (K562-dCas9-KRAB): 91.7724 and 93.2742 and 91.026
K562 CRISPRi cells; No sgRNA + 10 μM FK506, 0.137174 nM
  cell growth (K562-dCas9-KRAB): 91.4157 and 89.1222 and 88.9009
K562 CRISPRi cells; No sgRNA + 10 μM FK506, 1.23457 nM
  cell growth (K562-dCas9-KRAB): 91.763 and 90.0617 and 88.7417
K562 CRISPRi cells; No sgRNA + 10 μM FK506, 3.7037 nM
  cell growth (K562-dCas9-KRAB): 89.7918 and 91.174 and 89.4532
K562 CRISPRi cells; No sgRNA + 10 μM FK506, 11.1111 nM
  cell growth (K562-dCas9-KRAB): 86.3008 and 85.9782 and 86.561
K562 CRISPRi cells; No sgRNA + 10 μM FK506, 33.3333 nM
  cell growth (K562-dCas9-KRAB): 70.168 and 69.6522 and 67.2473
K562 CRISPRi cells; No sgRNA, 0.0152416 nM
  cell growth (K562-dCas9-KRAB): 98.221 and 102.996 and 99.7082
K562 CRISPRi cells; No sgRNA, 0.0457247 nM
  cell growth (K562-dCas9-KRAB): 104.804 and 96.4373 and 102.095
K562 CRISPRi cells; No sgRNA, 0.137174 nM
  cell growth (K562-dCas9-KRAB): 98.0154 and 97.5628 and 102.366
K562 CRISPRi cells; No sgRNA, 1.23457 nM
  cell growth (K562-dCas9-KRAB): 69.0104 and 68.6714 and 68.1063
K562 CRISPRi cells; No sgRNA, 3.7037 nM
  cell growth (K562-dCas9-KRAB): 15.0031 and 16.0719 and 14.3485
K562 CRISPRi cells; No sgRNA, 11.1111 nM
  cell growth (K562-dCas9-KRAB): 13.4023 and 12.2624 and 12.6642
K562 CRISPRi cells; No sgRNA, 33.3333 nM
  cell growth (K562-dCas9-KRAB): 12.1483 and 12.1908 and 11.8583
